One experiment deals with HCT116(VP)35. Kind of experiment: In vitro cytotoxicity, XTT assay. As for the experimental part:
(§1) The vanadate compound pV(phen) was tested for in vitro cytotoxicity in a panel of human tumor cell lines. The cell lines used were a human colon carcinoma cell line, HCT116, and two drug-resistant sublines. The HCT116(VM46) subline was selected for resistance to VM-26 and expresses the multidrug resistant (MDR) phenotype including resistance to lipophilic anticancer drugs such as paclitaxel, VP-16, VM-26, doxorubicin, and vinblastine. This cell line overexpresses P-glycoprotein, a cell surface drug efflux pump, which limits accumulation of anticancer drugs such as the ones mentioned above. […] The compound pV(phen) was also evaluated in the ovarian carcinoma cell line A2780 and a paclitaxel resistant subline A2780-Tax22.
(§2) In the cytotoxicity assays, cells were plated and 24 hr later drugs were added and serially diluted. After 72 hr of continuous drug exposure, the tetrazolium dye XTT was added. A dehydrogenase enzyme in live cells reduces the XTT to a form that absorbs light at 450 nm which can be quantitated spectrophotometrically. The greater absorbance, the greater is the number of live cells. The results are expressed as a IC50 which is a drug concentration required to inhibit cell proliferation (i.e., absorbance at 450 nm) to 50% of that of untreated control cells.

For a further experiment, the system named is HCT116. Kind of experiment: In vitro cytotoxicity, XTT assay. Particulars: Homo sapiens, HCT-116, 72 h, read-out: IC50 (cytotoxicity). As for the experimental part: as §1, §2
On the technique in general: Tetrazolium dyes change colour on reduction, which living cells bring about.

For a further experiment, the system named is A2780. Kind of experiment: In vitro cytotoxicity, XTT assay. Particulars: Homo sapiens, A2780, 72 h, read-out: IC50 (cytotoxicity). The protocol: as §1, §2
For a further experiment, the system named is HCT116(VM)46. Kind of experiment: In vitro cytotoxicity, XTT assay. The protocol:
as §1, §2

For a further experiment, the system named is A2780/Tax22. Briefly: In vitro cytotoxicity, XTT assay. The protocol:
as §1, §2

Experiment [1] relates to Ramos. Kind of experiment: Clonogenic assay in methylcellulose. Type of experiment: cell-based, human. The conditions noted are these: Ramos B cells.
In experiment [2] the test system is Ramos. Kind of experiment: Clonogenic assay in methylcellulose. In kind it is cell-based, human. The conditions noted are these: doses of 10 and 25 μM. As for the experimental part:
The selective cytotoxicity of BMLOV was examined in clonogenic assays. Cells were grown in methylcellulose media and the number of colonies formed after seven days of treatment with various doses of the drug were determined. The clonogenic assays were performed with six replicates for each treatment as described [F. M. Uckun et al., J. Exp. Med. 163:347-368 (1986); F. M. Uckun & J. A. Ledbetter, Proc. Natl. Acad. Sci. USA 85:8603-8607 (1988)). The data is given plus/minus the standard error of the mean.
For assays of cellular proliferation, cells were grown five days in the presence of the indicated concentrations of BMLOV, pulsed 6 hr with [^3 H]-thymidine (New England Nuclear, Boston, Mass.), and counted in a liquid scintillation counter. Human peripheral blood lymphocytes (PBL) from normal volunteers were isolated from lymphocyte separation medium (Litton Bionetics, Kensington, Md.) by density gradient centrifugation. Monocytes were depleted from PBL by two rounds of plastic absorption for 30 minutes at 37° C. B cells were enriched for by negative selection using complement plus monoclonal antibodies to CD2, CD3, CD4, and CD8 for complement depletion. Clonogenic assays of colony formation in methylcellulose medium were performed as previously described (F. M. Uckun et al. (1992), supra).

A further experiment deals with Ramos cells. Briefly: Anti-phosphotyrosine western blot of cell lysates. Type of experiment: cell-based, human. Particulars: FIG. 11; whole cell lysates.
In experiment [3] the test system is calf intestinal alkaline phosphatase. Particulars: reported by Cortizo et al.; cited from earlier work.
Experiment [4] deals with Ramos. The conditions noted are these: previous studies (Uckun et al. 1992); cited from earlier work.

Molecules are shown by their SMILES.

One may read the IC50 as the concentration at which inhibition is half-maximal. As to `CC(=O)O[C@H]1C(=O)[C@@]2(C)[C@H]([C@H](OC(=O)c3ccccc3)[C@]3(O)C[C@H](OC(=O)[C@H](O)[C@@H](NC(=O)c4ccccc4)c4ccccc4)C(C)=C1C3(C)C)[C@]1(OC(C)=O)CO[C@@H]1C[C@@H]2O` [Paclitaxel, reference compound], the half-inhibitory concentration (IC50) was determined as 2 nM with HCT116(VP)35 (Homo sapiens, HCT-116, 72 h, read-out: IC50 (cytotoxicity)); 3 nM in the experiment with HCT116; 4 nM with A2780; 226 nM in the experiment with HCT116(VM)46 (Homo sapiens, HCT-116/VM46, 72 h, read-out: IC50 (cytotoxicity)); 75 nM in the experiment with A2780/Tax22 (Homo sapiens, A2780, 72 h, read-out: IC50 (cytotoxicity)). In addition, the “fold resistance relative to parental cell line” value in the experiment with HCT116(VP)35 (vs HCT116, 4320 min) amounted to 0.7 fold; in the experiment with HCT116(VM)46 (vs HCT116, 4320 min), 75 fold; in the experiment on A2780/Tax22 (vs A2780, 4320 min), 18 fold.

For the molecule `CC(=O)C=C(C)[O-].CC(=O)C=C(C)[O-].[Cu+2]` [cupric acetylacetonate], the Colonies with Ramos [1] (1 μM cupric acetylacetonate) is reported as 5749; with Ramos [1] (5 μM cupric acetylacetonate), 226; in the experiment with Ramos [1] (10 μM cupric acetylacetonate) it was 127; with Ramos [1] (25 μM cupric acetylacetonate) it was 31. For the same molecule, the “sensitivity in clonogenic assay, in words” value with Ramos [2] is recorded as “sensitive to the compound”. Also, the “induction of cellular tyrosine phosphorylation by analogs” value (from here on “induction … by analogs”) with Ramos cells is on record as “induced tyrosine phosphorylation, but in a different pattern than for the vanadyl compounds”.

For the molecule `[Na+].[Na+].[Na+].[O]=[V]([O-])([O-])[O-]` [sodium orthovanadate], in [3], the “concentration strongly inhibiting calf intestinal alkaline phosphatase” value is recorded as “less than 20 μM”. Moreover, the “effect on Ramos cells in clonogenic assays” value with Ramos [4] is given as “only gave slight effects”.

For `CC(=O)C=C([O-])c1ccccc1.CC(=O)C=C([O-])c1ccccc1.[O]=[V+2]` [vanadyl 1-benzoyl acetonate], in the experiment on Ramos cells, the “induction … by analogs” value is given as “strongly induced cellular tyrosine phosphorylation”.

`CC(=O)/C=C(/C)[O-].CC(=O)/C=C(/C)[O-].[O]=[V+2]` [vanadyl acetylacetonate]: the “induction … by analogs” value with Ramos cells is listed as “strongly induced cellular tyrosine phosphorylation”.

These data come from patent publication US5877210A, “Phosphotyrosine phosphatase inhibitors or phosphotyrosine kinase activators for controlling cellular proliferation” (priority 1995, dated 1999).
